The target in test [1] is T1, PE-labeled human PD-L1-Ig binding to Jurkat cell line over-expressing human PD-1 (Jurkat-PD-1) (Homo sapiens, UniProt Q15116).
T1 construct: expressed in transfected cells; host or cells: Jurkat
Briefly: Jurkat-PD-1 Cell Binding High-Content Screening Assay (CBA): Method 2 (presence and absence of tween-20). Conditions: Jurkat-PD-1 cells, PE-labeled PD-L1-Ig 20 nM; presence or absence of tween-20 not given; head μM; read-out: CBA Method 2 μM. The gist of the method: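 Compounds incubated with Jurkat cells overexpressing human PD-1 for 2 h at 37° C, tested with and without tween-20 to flag aggregation. PE-labeled human PD-L1-Ig (20 nM final) added in DMEM/10% FCS; binding read by high-content imaging.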

Test [2] concerns the target T1, PE-labeled human PD-L1-Ig binding to Jurkat cell line over-expressing human PD-1 (Jurkat-PD-1). Briefly: Jurkat-PD-1 Cell Binding High-Content Screening Assay (CBA): Method 1. Conditions: Jurkat-PD-1 cells, PE-labeled PD-L1-Ig; μM; read-out: CBA Method 1 μM.

The structures appear in SMILES notation. Numbered stars: 1 amine (or outer) side, 2 acyl side, 3 side chain; on linkers, the order of the positions; unused ones are H or OH. Bridge positions count the residues as written; N and C are the ends. Square brackets hold non-standard residues; d marks the D form. Peptide text beside a SMILES is read from it. * marks the point of attachment. ξ: configuration not given here. X10 = O=C(CCc1c[nH]cn1)NCc1cccc(C[C@H](N[*:1])C(=O)[*:2])c1; Bip(4'-COOH) = N[C@@H](Cc1ccc(-c2ccc(C(=O)O)cc2)cc1)C(=O)O; Bip(4'-NHAc) = CC(=O)Nc1ccc(-c2ccc(C[C@H](N)C(=O)O)cc2)cc1; Phe(3-CF3) = N[C@@H](Cc1cccc(C(F)(F)F)c1)C(=O)O; Ala(morpholin-4-yl) = N[C@@H](CN1CCOCC1)C(=O)O; Phe(4-CONH2) = NC(=O)c1ccc(C[C@H](N)C(=O)O)cc1; Phe(4-COOH) = N[C@@H](Cc1ccc(C(=O)O)cc1)C(=O)O; Bpa = N[C@@H](Cc1ccc(C(=O)c2ccccc2)cc1)C(=O)O; X5 = CS(=O)(=O)NC(=O)C[C@H](N[*:1])C(=O)[*:2]; Bip = N[C@@H](Cc1ccc(-c2ccccc2)cc1)C(=O)O; Phe(3-Me) = Cc1cccc(C[C@H](N)C(=O)O)c1; Val(3-OH) = CC(C)(O)[C@H](N)C(=O)O; Cha = N[C@@H](CC1CCCCC1)C(=O)O; NTA = O=C(O)CN(CC(=O)O)CC(=O)*; Thr(3ξ) = CC(O)[C@H](N)C(=O)O; Carboxymethyl = O=C(O)C*; NMeA = CN[C@@H](C)C(=O)O; Nle = CCCC[C@H](N)C(=O)O; Orn = NCCC[C@H](N)C(=O)O; Dab = NCC[C@H](N)C(=O)O; ξC = NC(CS)C(=O)O

The values that follow come from patent publication US20240409585A1, “MACROCYCLIC IMMUNOMODULATORS” (priority 2021, published 2024).

T1 sequence (Q15116 25-288): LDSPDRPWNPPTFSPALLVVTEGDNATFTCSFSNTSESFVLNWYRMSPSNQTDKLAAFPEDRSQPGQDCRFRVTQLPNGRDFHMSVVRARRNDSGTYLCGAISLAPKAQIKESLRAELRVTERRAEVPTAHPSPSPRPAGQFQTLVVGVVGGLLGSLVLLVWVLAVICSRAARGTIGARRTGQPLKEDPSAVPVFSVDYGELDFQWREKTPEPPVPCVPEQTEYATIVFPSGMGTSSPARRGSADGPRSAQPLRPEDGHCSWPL

Regarding `CC(C)C[C@H]1NC(=O)[C@H](C)N(C)C(=O)[C@H](CCC(N)=O)NC(=O)[C@H](Cc2ccc(-c3ccccc3)cc2)NC(=O)[C@H](Cc2ccc(C(=O)O)cc2)NC(=O)[C@H](Cc2cccc(C(F)(F)F)c2)NC(=O)[C@H](CCNC(=O)CN(CC(=O)O)CC(=O)O)NC(=O)[C@H](Cc2ccc(C(=O)O)cc2)NC(=O)[C@H](CN2CCOCC2)NC(=O)CSC[C@@H](C(=O)N[C@@H](CCN)C(N)=O)NC(=O)[C@H](CCCN)NC(=O)[C@H](C(C)C)NC(=O)[C@H](CC2CCCCC2)NC(=O)[C@H](CCN)NC1=O` [Example 5076] ({CH2CO}-[Ala(morpholin-4-yl)][Phe(4-COOH)][Dab](NTA)[Phe(3-CF3)][Phe(4-COOH)][Bip]Q[NMeA][dL][Dab][Cha]V[Orn]C[Dab]-NH2; thioether N-14), the IC50 in test [1] was found to be 0.111 µM; in test [2] it was 0.463 µM.
On the same counts, the results for `Cc1cccc(C[C@@H]2NC(=O)[C@H](CC(=O)O)NC(=O)[C@H](Cc3ccc(C(=O)O)cc3)NC(=O)[C@H](CN3CCOCC3)NC(=O)CSC[C@@H](C(=O)N[C@@H](CCN)C(N)=O)NC(=O)[C@H](CCCN)NC(=O)[C@H](C(C)C)NC(=O)[C@H](CC3CCCCC3)NC(=O)[C@H](CCN)NC(=O)[C@@H](CC(C)C)NC(=O)[C@H](C)N(C)C(=O)[C@H](CCC(N)=O)NC(=O)[C@H](Cc3ccc(-c4ccccc4)cc3)NC(=O)[C@H](Cc3ccc(-c4ccc(C(=O)O)cc4)cc3)NC2=O)c1` [Example 5059] ({CH2CO}-[Ala(morpholin-4-yl)][Phe(4-COOH)]D[Phe(3-Me)][Bip(4'-COOH)][Bip]Q[NMeA][dL][Dab][Cha]V[Orn]C[Dab]-NH2; thioether N-14) are 0.0033 µM and 0.0029 µM.
`Cc1cccc(C[C@@H]2NC(=O)[C@H](CC(=O)O)NC(=O)[C@H](Cc3ccc(OCC(=O)O)cc3)NC(=O)[C@H](Cc3cccc(CNC(=O)CCc4c[nH]cn4)c3)NC(=O)CSC[C@@H](C(=O)N[C@@H](CCN)C(N)=O)NC(=O)[C@H](CCCN)NC(=O)[C@H](C(C)C)NC(=O)[C@H](CC3CCCCC3)NC(=O)[C@H](CCN)NC(=O)[C@@H](CC(C)C)NC(=O)[C@H](C)N(C)C(=O)[C@H](CCC(N)=O)NC(=O)[C@H](Cc3ccc(-c4ccccc4)cc3)NC(=O)[C@H](Cc3ccc(C(=O)O)cc3)NC2=O)c1` [Example 5035] ({CH2CO}-[X10]Y(Carboxymethyl)D[Phe(3-Me)][Phe(4-COOH)][Bip]Q[NMeA][dL][Dab][Cha]V[Orn]C[Dab]-NH2; thioether N-14): the IC50 in test [1] is 0.0035 µM; in test [2], 0.0042 µM.
Taken in the same sequence, the figures for `Cc1cccc(C[C@@H]2NC(=O)[C@H](CC(=O)O)NC(=O)[C@H](Cc3ccc(OCC(=O)O)cc3)NC(=O)[C@H](CN3CCOCC3)NC(=O)CSC[C@@H](C(=O)N[C@@H](CCN)C(N)=O)NC(=O)[C@H](CCCN)NC(=O)[C@H](C(C)C)NC(=O)[C@H](CC3CCCCC3)NC(=O)[C@H](CCN)NC(=O)[C@@H](CC(C)C)NC(=O)[C@H](C)N(C)C(=O)[C@H](Cc3ccc(C(=O)O)cc3)NC(=O)[C@H](Cc3ccc(-c4ccccc4)cc3)NC(=O)[C@H](Cc3ccc(C(=O)O)cc3)NC2=O)c1` [Example 5045] ({CH2CO}-[Ala(morpholin-4-yl)]Y(Carboxymethyl)D[Phe(3-Me)][Phe(4-COOH)][Bip][Phe(4-COOH)][NMeA][dL][Dab][Cha]V[Orn]C[Dab]-NH2; thioether N-14) were 0.0014 µM and 0.0016 µM.
Taken in the same sequence, the figures for `Cc1cccc(C[C@@H]2NC(=O)[C@H](CC(=O)O)NC(=O)[C@H](Cc3ccc(OCC(=O)O)cc3)NC(=O)[C@H](CN3CCOCC3)NC(=O)CSCC(C(=O)N[C@@H](CCN)C(N)=O)NC(=O)[C@H](CCCN)NC(=O)[C@H](C(C)C)NC(=O)[C@H](CC3CCCCC3)NC(=O)[C@H](CCN)NC(=O)[C@@H](CC(C)C)NC(=O)[C@H](C)N(C)C(=O)[C@H](CCC(N)=O)NC(=O)[C@H](Cc3ccc(-c4ccccc4)cc3)NC(=O)[C@H](Cc3ccc(C(=O)c4ccccc4)cc3)NC2=O)c1` (stereo partly drawn) [Example 5031] ({CH2CO}-[Ala(morpholin-4-yl)]Y(Carboxymethyl)D[Phe(3-Me)][Bpa][Bip]Q[NMeA][dL][Dab][Cha]V[Orn][ξC][Dab]-NH2; thioether N-14) were 0.0068 µM and 0.0087 µM.
On the same counts, the results for `Cc1cccc(C[C@@H]2NC(=O)[C@H](CC(=O)O)NC(=O)[C@H](Cc3ccc(OCC(=O)O)cc3)NC(=O)[C@H](C(C)O)NC(=O)CSC[C@@H](C(=O)N[C@@H](CCN)C(N)=O)NC(=O)[C@H](CO)NC(=O)[C@H](C(C)(C)O)NC(=O)[C@H](CC3CCCCC3)NC(=O)[C@H](CCN)NC(=O)[C@@H](CC(C)C)NC(=O)[C@H](C)N(C)C(=O)[C@H](Cc3ccc(C(N)=O)cc3)NC(=O)[C@H](Cc3ccc(-c4ccccc4)cc3)NC(=O)[C@H](Cc3ccc(OCC(=O)O)cc3)NC2=O)c1` (stereo partly drawn) [Example 5067] ({CH2CO}-[Thr(3ξ)]Y(Carboxymethyl)D[Phe(3-Me)]Y(Carboxymethyl)[Bip][Phe(4-CONH2)][NMeA][dL][Dab][Cha][Val(3-OH)]SC[Dab]-NH2; thioether N-14) are 0.0069 µM and 0.0072 µM.
For the compound `CCCC[C@@H]1NC(=O)CSC[C@@H](C(=O)N[C@@H](CCN)C(N)=O)NC(=O)[C@H](CCC(=O)O)NC(=O)[C@H](C(C)C)NC(=O)[C@H](CC2CCCCC2)NC(=O)[C@H](CCN)NC(=O)[C@@H](CC(C)C)NC(=O)[C@H](C)N(C)C(=O)[C@H](CCCN)NC(=O)[C@H](Cc2ccc(-c3ccccc3)cc2)NC(=O)[C@H](Cc2ccc(-c3ccc(C(=O)O)cc3)cc2)NC(=O)[C@H](Cc2cccc(C(F)(F)F)c2)NC(=O)[C@H](CC(=O)O)NC(=O)[C@H](Cc2ccc(-c3ccc(C(=O)O)cc3)cc2)NC1=O` [Example 5089] ({CH2CO}-[Nle][Bip(4'-COOH)]D[Phe(3-CF3)][Bip(4'-COOH)][Bip][Orn][NMeA][dL][Dab][Cha]VEC[Dab]-NH2; thioether N-14), the IC50 worked out at 0.11 µM in test [1] and 0.01 µM in test [2].
Taken in the same sequence, the figures for `Cc1cccc(C[C@@H]2NC(=O)[C@H](CC(=O)NS(C)(=O)=O)NC(=O)[C@H](Cc3ccc(OCC(=O)O)cc3)NC(=O)[C@H](CN3CCOCC3)NC(=O)CSC[C@@H](C(=O)N[C@@H](CCN)C(N)=O)NC(=O)[C@H](CCCN)NC(=O)[C@H](C(C)C)NC(=O)[C@H](CC3CCCCC3)NC(=O)[C@H](CCN)NC(=O)[C@@H](CC(C)C)NC(=O)[C@H](C)N(C)C(=O)[C@H](Cc3ccc(C(=O)O)cc3)NC(=O)[C@H](Cc3ccc(-c4ccccc4)cc3)NC(=O)[C@H](Cc3ccc(C(=O)O)cc3)NC2=O)c1` [Example 5046] ({CH2CO}-[Ala(morpholin-4-yl)]Y(Carboxymethyl)[X5][Phe(3-Me)][Phe(4-COOH)][Bip][Phe(4-COOH)][NMeA][dL][Dab][Cha]V[Orn]C[Dab]-NH2; thioether N-14) were 0.517 µM and 0.514 µM.
Taken in the same sequence, the figures for `CC(=O)Nc1ccc(-c2ccc(C[C@@H]3NC(=O)[C@H](Cc4cccc(C)c4)NC(=O)[C@H](CC(=O)O)NC(=O)[C@H](Cc4ccc(C(=O)O)cc4)NC(=O)[C@H](CN4CCOCC4)NC(=O)CSC[C@@H](C(=O)N[C@@H](CCN)C(N)=O)NC(=O)[C@H](CCCN)NC(=O)[C@H](C(C)C)NC(=O)[C@H](CC4CCCCC4)NC(=O)[C@H](CCN)NC(=O)[C@@H](CC(C)C)NC(=O)[C@H](C)N(C)C(=O)[C@H](CCC(N)=O)NC(=O)[C@H](Cc4ccc(-c5ccccc5)cc4)NC3=O)cc2)cc1` [Example 5048] ({CH2CO}-[Ala(morpholin-4-yl)][Phe(4-COOH)]D[Phe(3-Me)][Bip(4'-NHAc)][Bip]Q[NMeA][dL][Dab][Cha]V[Orn]C[Dab]-NH2; thioether N-14) were 0.0044 µM and 0.0048 µM.
